Two compounds from article PMC9103815, “Phytochemical Analysis, α-Glucosidase and α-Amylase Inhibitory Activities and Acute Toxicity Studies of Extracts from Pomegranate (Punica granatum) Bark, a Valuable Agro-Industrial By-Product” (Foods, 2022) can be followed below.

The test addresses T1, pancreatic α-amylase (Homo sapiens, UniProt P04746).
T1 construct: purchased Sigma-Aldrich
T1 sequence (P04746 16-511): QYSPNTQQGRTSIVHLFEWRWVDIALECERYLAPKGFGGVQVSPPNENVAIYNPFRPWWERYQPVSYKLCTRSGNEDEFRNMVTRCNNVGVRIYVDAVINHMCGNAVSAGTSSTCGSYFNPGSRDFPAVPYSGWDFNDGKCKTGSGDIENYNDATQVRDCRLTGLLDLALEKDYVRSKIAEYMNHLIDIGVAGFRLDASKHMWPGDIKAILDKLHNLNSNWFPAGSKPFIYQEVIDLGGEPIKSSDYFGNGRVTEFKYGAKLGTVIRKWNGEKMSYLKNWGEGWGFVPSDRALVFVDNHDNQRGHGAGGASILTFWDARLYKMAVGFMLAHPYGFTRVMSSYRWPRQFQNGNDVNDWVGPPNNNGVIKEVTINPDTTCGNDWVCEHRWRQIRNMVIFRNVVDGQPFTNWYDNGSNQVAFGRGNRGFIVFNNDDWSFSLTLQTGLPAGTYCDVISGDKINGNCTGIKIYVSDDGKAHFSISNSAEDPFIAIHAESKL
Kind of test: In vitro inhibition of pancreatic α-amylase (starch, DNSA). Conditions: pure commercial standards; triplicate; Figure 7 A-C. The class given is biochemical.

The term IC50 denotes the concentration that inhibits the measured activity by half.

Experimental: Pancreatic α-amylase inhibition activity was assessed according to the method described by Daoudiet al. [25]. […] The solutions were prepared by dissolving the enzymes and samples in a phosphate buffer solution (0.1 M, pH 6.9). The mixtures were incubated for 10 min at 37 °C. Next, 200 μL of 1% starch also dissolved in a phosphate buffer was added to the reaction mixture, and all test tubes were incubated for another 20 min at 37 °C. To stop the reaction, 600 μL of DNSA (1 g of 3,5-dinitrosalicylic acid dissolved in 20 mL of NaOH(2N), combined with 30 g of KNaC4H4O6, and filled up to 100 mL with distilled water) was added. Afterward, the mixture was posed in a water bath at 100 °C for 8 min, then it was put in an ice-cold-water bath for a few minutes. About 1 mL of distilled water was added to the sample tubes before their absorbance measurement at 540 nm.
The percentage of inhibition was computed using the following formula:(2) Inhibitory activity (%)=Abs control 540 nm− Abs sample 540 nm/Abs control 540 nm×100
Increasing concentrations were utilized to calculate the IC50 value. The enzymatic assays were carried out as indicated above.

Compound `Oc1cc(O)c2c(c1)O[C@@H](c1ccc(O)c(O)c1)[C@H](O)C2` [Catechin, (−)-catechin] had an IC50 of 30.8 ± 2.11 µM. The compound `O=c1oc2c(O)c(O)cc3c(=O)oc4c(O)c(O)cc1c4c23` [Ellagic acid] had an IC50 of 29.4 ± 4.57 µM.
